In US9573961B2, “Inhibitors of the renal outer medullary potassium channel” (Merck Sharp & Dohme Corp., priority 2012, dated 2017):
Read-outs that look alike come from different tables or passages of the source.

Columns and labels:
Kir1.1 (ROMK1) = Kir1.1 (ROMK1) (Homo sapiens (Human), UniProt P48048); test: Electrophysiology Assay (whole cell voltage clamp, IonWorks Quattro); assay type: cell-based; details: Electrophysiology IC50, Chinese hamster ovary cells stably expressing Kir1.1; block during voltage step to 0 mV
In short: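 CHO cells stably expressing the channel, induced overnight with 1 mM sodium butyrate, were recorded in amphotericin-perforated patch mode. The test pulse was a 100 ms step to 0 mV from −70 mV, then a −70 to +70 mV ramp, applied before and after a 6 min compound incubation. Current amplitudes were compared.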

hROMK (hKir1.1) = hROMK (hKir1.1) (Homo sapiens (Human), UniProt P48048); test: Thallium Flux Assay (ROMK channel functional thallium flux, FLIPR-Tetra); assay type: cell-based
In short: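 HEK293 cells stably expressing hROMK loaded with FluxOR dye for 90 min, then incubated with compound for 30 min at 23-25 °C. Normalized to a 3 μM standard ROMK inhibitor as % fluorescence change.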

[1] = HEK293 cells stably expressing hROMK (hKir1.1), read-out: Thallium Flux IC50

Sequence of hROMK (hKir1.1) (P48048 whole entry): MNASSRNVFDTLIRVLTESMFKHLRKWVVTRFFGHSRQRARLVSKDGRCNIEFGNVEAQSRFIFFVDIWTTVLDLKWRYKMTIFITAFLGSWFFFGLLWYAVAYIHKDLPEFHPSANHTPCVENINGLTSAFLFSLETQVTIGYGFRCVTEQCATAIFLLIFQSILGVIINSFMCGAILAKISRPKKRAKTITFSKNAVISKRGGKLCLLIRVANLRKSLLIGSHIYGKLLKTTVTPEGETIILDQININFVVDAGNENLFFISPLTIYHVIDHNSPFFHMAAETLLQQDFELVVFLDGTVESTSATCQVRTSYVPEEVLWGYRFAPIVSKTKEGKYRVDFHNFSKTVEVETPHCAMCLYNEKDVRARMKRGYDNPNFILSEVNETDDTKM
Sequence of Kir1.1 (ROMK1) (P48048 whole entry): as above

SMILES | IC50 (Kir1.1 (ROMK1)) [nM] | IC50 (hROMK (hKir1.1); Thallium Flux IC50) [nM] | IC50 (hROMK (hKir1.1); [1]) [nM]
Cc1c([C@@H]2CN3CCN(C(=O)Cc4c(F)cc(-n5cnnn5)cc4F)C[C@H]3CN2)ccc(F)c1C#N [Example 102] | 160 | 150 | –
Cc1c([C@H]2CN3CCN(C(=O)Cc4c(F)cc(-n5cnnn5)cc4F)C[C@H]3CN2)ccc(F)c1C#N [Example 103] | 80 | 110 | –
C[C@@H]1Cc2cc([C@@H]3CN4CCN(C(=O)Cc5ccc(-n6cnnn6)cc5)C[C@H]4CN3)ccc2C(=O)O1 [Example 104] | 380 | – | 290
C[C@@H]1Cc2cc([C@@H]3CN4CCN(C(=O)Cc5c(F)cc(-n6cnnn6)cc5F)C[C@H]4CN3)ccc2C(=O)O1 [Example 105] | 180 | – | 360
